The values below come from publication PMC4689404, “2-Benzazolyl-4-Piperazin-1-Ylsulfonylbenzenecarbohydroxamic Acids as Novel Selective Histone Deacetylase-6 Inhibitors with Antiproliferative Activity” (PLoS ONE, 2015).

Each structure is given as a SMILES string. Where two headings read alike, the source gives them in different places.

As a reminder, the IC50 is the concentration that inhibits the measured activity by half. For orientation: melting point means the temperature of the solid-liquid transition.

For series [1], the system named is HDAC1. To be noted: Table 4; cited from earlier work.
The subject of series [2] is epigenetically silenced GFP transgene in LDR cells. Kind of series: locus derepression (LDR) assay, GFP induction. The class given is cell-based. Set-up: key to GFP Induc.: -: —negative. To be noted: for GFP Induc.: Fig 4. As for the experimental part: LDR cells were maintained in DMEM with L-glutamine and high glucose, 1 mM sodium pyruvate, 0.1 mM MEM non-essential amino acids, 1% v/v penicillin-streptomycin and 10% heat inactivated FBS. Cells were seeded on glass bottom chambers at low-medium density and allowed to attach overnight. Compounds were then added for 24h at the indicated dose and cells were imaged under a fluorescent microscope equipped with a camera using a 20 or 40X objective. All images shown were exposed for identical time.

The target in series [3] is T1, partially purified HDAC1 from mouse A20 cells (Mus musculus, UniProt O09106).
T1 construct: from mouse A20 cells was used as enzyme source; endogenous in cells; host or cells: mouse A20 cells
Description: HDAC1 activity assay, partially purified enzyme, [3H]acetate-prelabeled histones. The class given is biochemical. To be noted: Table 3; partially purified HDAC1; read-out: HDAC1 IC50. An excerpt:
For inhibition assays, partially purified HDAC1 (70–80 fold enriched relative to crude samples) from mouse A20 cells was used as enzyme source. HDAC1 activity was purified by a combination of anion exchange chromatography (Mono Q), affinity chromatography (Poly-lysin agarose, Heparin Sepharose) and TSK size exclusion chromatography (Jesacher and Loidl, unpublished). HDAC1 protein was identified by immunoblotting using anti mouse HDAC1 antibodies (collaboration with Zymed Laboratories, Inc., San Francisco, California, USA). HDAC activity was determined as described by Sendra et al., [20] using [^3H]acetate-prelabeled chicken reticulocyte histones as substrate. 50 μL of mouse HDAC1 were incubated with different concentrations of compounds for 10 min on ice and 10 μL of total [^3H] acetate pre-labeled chicken reticulocyte histones (4 mg/mL) were added, resulting in a concentration of 41 μM. This mixture was incubated at 37°C for 1 h. The reaction was stopped by addition of 50 μL of 1 M HCl/0.4 M acetylacetate and 1 mL ethylacetate. After centrifugation at 10000 x g for 5 min an aliquot of 600 μL of the upper phase was counted for radioactivity in 3 mL liquid scintillation cocktail.

The subject of a further series is HCC4017. Kind of series: MTS viability assay. The class given is cell-based, human. To be noted: for IC50: Patient A cancer line, MTS, 4 days, read-out: Antiproliferative activity IC50, HCC4017; for Selectivity (HBEC-30KT vs HCC4017): Patient A. As for the experimental part: (§1) Immortalized normal human bronchial epithelial cells (also provided by Dr. John D. Minna) were cultured in KSFM supplemented with pituitary extract and EGF. For viability assays, cells were plated on 96 well plates and grown overnight. Cells were then exposed to increasing doses of the indicated compounds for 4 days and their viability assayed using the Promega Cell Titer 96 AQueous One kit per the manufacturer’s protocol. All doses were tested in 4–8 replicates. IC50 values were calculated using the in-house software DIVISA.
Background: Tetrazolium assays rely on reduction of a dye to a coloured formazan, in cell work by metabolically active cells.

Another series relates to HCC4018. Kind of series: MTS viability assay. To be noted: for IC50: Patient B cancer line, MTS, 4 days, read-out: Antiproliferative activity IC50, HCC4018; for Selectivity (HBEC-34KT vs HCC4018): Patient B. Type of series: cell-based, human. How it is done: as §1
For the next series, the system named is HBEC-30KT. Kind of series: MTS viability assay. Type of series: cell-based, human. Particulars: Patient A normal line, 4 days, read-out: Antiproliferative activity IC50, HBEC-30KT. As for the experimental part:
as §1, with “Lung cancer cells (kindly provided by Dr. John D. Minna, [13, 21]) were maintained in RPMI 1640 media supplemented with 10% FBS. Immortalized” for “Immortalized”

For a further series, the system named is HBEC-34KT. Kind of series: MTS viability assay. Type of series: cell-based, human. To be noted: Patient B normal line, 4 days, read-out: Antiproliferative activity IC50, HBEC-34KT. How it is done: as §1, with “Lung cancer cells (kindly provided by Dr. John D. Minna, [13, 21]) were maintained in RPMI 1640 media supplemented with 10% FBS. Immortalized” for “Immortalized”

Series [4] deals with HDAC1. Particulars: read-out: HDAC1 IC50; Table 4; cited from earlier work.
The test system of a further series is HDAC6. To be noted: read-out: HDAC6 IC50; Table 4; cited from earlier work.
The target in a further series is T2, recombinant HDAC1 (Homo sapiens, UniProt Q13547).
T2 construct: purchased Epigenetek
Description: comparative HDAC inhibition assay (Millipore fluorometric kit). Type of series: biochemical. To be noted: recombinant HDAC1, fluorometric substrate; Table 4. As for the experimental part: (§2) For the direct comparison of HDAC1 vs. HDAC6 inhibition, HDAC activity was analyzed using the HDAC Assay Kit from Millipore (17–356). Briefly, recombinant HDAC1 or recombinant HDAC6 (both purchased from Epigenetek, Purity of HDAC1 is more than 60% and purity HDAC6 is more than 85%). was incubated with the fluorometric HDAC substrate according to the manufacturer’s protocol in the presence of DMSO vehicle or increase compound doses. In a secondary activator reaction, the fluorophore is only cleaved from the deacetylated substrate, allowing for quantification. Fluorescence was quantified on a FLUOstar-Optima or a FLUOstar Omega plate reader (BMG Biosciences).

Another series has as its target T3, recombinant HDAC6 (Homo sapiens, UniProt Q9UBN7).
T3 construct: purchased Epigenetek
T3 sequence (Q9UBN7 1-1215): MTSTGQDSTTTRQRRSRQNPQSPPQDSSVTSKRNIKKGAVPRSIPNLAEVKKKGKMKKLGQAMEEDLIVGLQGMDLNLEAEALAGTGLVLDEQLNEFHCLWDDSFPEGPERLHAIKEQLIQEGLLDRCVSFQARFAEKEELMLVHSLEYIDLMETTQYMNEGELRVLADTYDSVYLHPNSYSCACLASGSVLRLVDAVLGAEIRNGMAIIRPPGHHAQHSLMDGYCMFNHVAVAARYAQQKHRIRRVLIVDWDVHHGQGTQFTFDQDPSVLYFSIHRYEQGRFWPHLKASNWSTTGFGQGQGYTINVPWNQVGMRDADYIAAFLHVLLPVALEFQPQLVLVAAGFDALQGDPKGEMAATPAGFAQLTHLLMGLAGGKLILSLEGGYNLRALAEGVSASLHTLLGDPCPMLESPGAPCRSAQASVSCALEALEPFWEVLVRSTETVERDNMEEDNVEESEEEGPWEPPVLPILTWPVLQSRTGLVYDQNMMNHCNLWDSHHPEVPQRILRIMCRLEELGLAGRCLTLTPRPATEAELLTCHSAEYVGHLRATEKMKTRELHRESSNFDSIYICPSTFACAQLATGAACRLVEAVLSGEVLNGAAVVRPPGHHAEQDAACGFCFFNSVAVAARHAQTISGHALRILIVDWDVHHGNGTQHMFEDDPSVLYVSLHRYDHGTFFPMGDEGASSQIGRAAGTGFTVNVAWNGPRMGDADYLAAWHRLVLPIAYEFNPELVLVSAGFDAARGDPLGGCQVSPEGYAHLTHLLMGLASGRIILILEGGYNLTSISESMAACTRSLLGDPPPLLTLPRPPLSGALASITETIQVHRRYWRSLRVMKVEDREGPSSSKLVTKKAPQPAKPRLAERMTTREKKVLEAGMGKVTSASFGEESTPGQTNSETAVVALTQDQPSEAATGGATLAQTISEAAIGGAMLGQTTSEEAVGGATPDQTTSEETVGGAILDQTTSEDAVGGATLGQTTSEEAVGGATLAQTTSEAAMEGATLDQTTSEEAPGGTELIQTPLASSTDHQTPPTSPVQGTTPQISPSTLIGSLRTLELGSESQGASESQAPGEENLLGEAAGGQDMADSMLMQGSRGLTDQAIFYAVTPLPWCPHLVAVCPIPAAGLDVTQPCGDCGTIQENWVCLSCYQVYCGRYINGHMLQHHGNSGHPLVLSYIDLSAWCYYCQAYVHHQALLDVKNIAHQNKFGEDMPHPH
Described as above. Particulars: for IC50: read-out: HDAC6 IC50. The class given is biochemical. How it is done: as §2

For the compound `CN1CCc2c(c3ccccc3n2Cc2ccc(C(=O)NO)cc2)C1` [Tubastatin A], the IC50 in the series on HDAC1 [1] is […].

T1 sequence (O09106 whole entry): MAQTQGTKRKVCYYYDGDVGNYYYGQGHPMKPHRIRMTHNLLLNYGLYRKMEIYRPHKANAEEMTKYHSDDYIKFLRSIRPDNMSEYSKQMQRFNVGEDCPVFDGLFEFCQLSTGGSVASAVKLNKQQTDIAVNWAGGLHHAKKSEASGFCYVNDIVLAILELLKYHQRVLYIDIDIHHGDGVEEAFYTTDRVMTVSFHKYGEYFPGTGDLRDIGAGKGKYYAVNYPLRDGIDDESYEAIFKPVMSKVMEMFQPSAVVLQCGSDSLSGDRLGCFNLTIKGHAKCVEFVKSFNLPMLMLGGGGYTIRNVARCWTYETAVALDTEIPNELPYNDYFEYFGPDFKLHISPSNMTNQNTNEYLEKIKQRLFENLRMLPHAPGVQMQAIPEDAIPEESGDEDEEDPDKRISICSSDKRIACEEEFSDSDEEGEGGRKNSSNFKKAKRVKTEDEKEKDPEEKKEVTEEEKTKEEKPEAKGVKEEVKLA
T2 sequence (Q13547 whole entry): as the sequence (O09106 whole entry) above, with K8R, E399D, D424E counted along it

For `O=C(NO)c1cccc(S(=O)(=O)N2CCN(c3nc4ccccc4s3)CC2)c1` [Compound 8d, 3-(4-Benzothiazol-2-yl-piperazin-1-sulfonyl)-N -hydroxy-benzamid], the melting point lay in the range of 207 to 210 °C. In series [2], the “GFP Induc.” value was “-”. Further, in series [3], the concentration for half-maximal inhibition (IC50) was found to be 140000 nM.

In turn, `O=C(NO)c1cccc(S(=O)(=O)N2CCN(c3nc4ccccc4o3)CC2)c1` [Compound 8c, 3-(4-Benzoxazol-2-yl-piperazin-1-sulfonyl)-N -hydroxy-benzamid] came in with a melting point of 257 to 262 °C. Moreover, in series [2], the “GFP Induc.” value is “-”. Also, in series [3], the IC50 worked out at 216000 nM.

In the case of `CC(/C=C/C(=O)NO)=C\[C@@H](C)C(=O)c1ccc(N(C)C)cc1` [TSA, trichostatin A, reference compound], the IC50 was 73 nM with HCC4017; 23 nM in the series on HCC4018; 285 nM with HBEC-30KT; 346 nM with HBEC-34KT; […] in the series with HDAC1 [4]; 8.6 ± 1.4 nM with HDAC6.

Turning to `C/C=C1\NC(=O)[C@H]2CSSCC/C=C/[C@H](CC(=O)N[C@H](C(C)C)C(=O)N2)OC(=O)[C@H](C(C)C)NC1=O` [Depsi., Depsipeptide, reference compound], the “Selectivity (HBEC-30KT vs HCC4017)” value with HCC4017 stood at 0.14. Besides, the concentration for half-maximal inhibition (IC50) in the series on HCC4017 came out at 6.5 nM; in the series with HCC4018, 4.2 nM; with HBEC-30KT it was 0.9 nM; with HBEC-34KT, 1.3 nM. For the same compound, the “toxicity to normal vs patient-matched cancer cells” value with HCC4017 (both paired cell lines) is “more toxic to normal cells than to the patient-matched cancer cells”. In addition, the “Selectivity (HBEC-34KT vs HCC4018)” value with HCC4018 is 0.31.

For the compound `O=C(NO)c1ccc(S(=O)(=O)N2CCN(c3nc4ccccc4[nH]3)CC2)cc1` [Compound 9a, 4-[4(1H-Benzimidazol-2-yl)-pipreazin-1-sulfonyl]-N-hydroxy-benzamid], the melting point is 382 to 383 °C (dec.). Moreover, in series [2], the “GFP induction / activity in the LDR assay” value was “inactive” and the “GFP Induc.” value is given as “-”. For the same compound, the half-inhibitory concentration (IC50) in [3] amounted to 12400 nM. Further, the IC50 in the series on HCC4017 (Homo sapiens, HCC4017, 96 h) is more than 10000 nM. The “cellular activity” value in the series on HCC4017 (MTS viability, lung cancer and normal lines) is recorded as “no cellular activity”. The IC50 with HCC4018 (Homo sapiens, 96 h) was more than 10000 nM. The IC50 with HBEC-30KT (Homo sapiens, 96 h) was more than 10000 nM. The IC50 with HBEC-34KT (Homo sapiens, 96 h) was more than 10000 nM. Besides, the IC50 at recombinant HDAC1 was found to be 6000 ± 2900 nM. Also, on recombinant HDAC6 (Table 3), the IC50 is 1000 nM. For the same compound, the “Selectivity Index HDAC1/HDAC6” value at recombinant HDAC6 (Table 4) was determined as 6.5. Also, on recombinant HDAC6 (recombinant HDAC6, fluorometric substrate, Table 4), the IC50 worked out at 930 ± 750 nM.

As for `O=C(NO)c1cccc(S(=O)(=O)N2CCN(c3nc4ccccc4[nH]3)CC2)c1` [Compound 8a, 3-[4(1H -Benzimidazol-2-yl)-piperazin-1-sulfonyl]-N -hydroxy-benzamid], the melting point lay in the range of 349 to 350 °C. Also, in series [2], the “GFP Induc.” value was “-”.

For `CCC(=O)CCCCC[C@@H]1NC(=O)[C@H]2CCCCN2C(=O)[C@H]([C@@H](C)CC)NC(=O)[C@H](Cc2cn(OC)c3ccccc23)NC1=O` [Apicidin, reference compound], the half-maximal inhibitory concentration (IC50) with HCC4017 (Homo sapiens, HCC4017, 96 h) was found to be 120 nM; in the series with HCC4018 (Homo sapiens, 96 h), 30 nM; in the series on HBEC-30KT (Homo sapiens, 96 h) it was 90 nM; with HBEC-34KT (Homo sapiens, 96 h) it was 790 nM. In addition, in the series on HCC4017, the “Selectivity (HBEC-30KT vs HCC4017)” value stood at 0.75. Also, the “Selectivity (HBEC-34KT vs HCC4018)” value in the series on HCC4018 turned out to be 26.3. Also, the “selectivity higher by a factor compared to compounds 9b-d” value in the series on HCC4018 (cells derived from patient B) is reported as 7–13 fold.

`Cn1c(N2CCN(S(=O)(=O)c3cccc(C(=O)NO)c3)CC2)nc2ccccc21` [Compound 8b, 3-[4-(1-Methyl-Benzimidazol-2-yl)-piperazin-1-sulfonyl]-N -hydroxy-benzamid] came in with a melting point of 167 to 169 °C. Moreover, the “GFP Induc.” value in series [2] is reported as “-”. For the same compound, the IC50 in [3] was 316000 nM.
